Laboratory results published in US20240308985A1 (Psy Therapeutics, Inc., priority 2021, published 2024).
Where two headings read alike, the source gives them in different places.

Tests used:
[1] = Pharmacokinetic study of compounds in mice (brain exposure); format: in vivo, male C57BL/6 mice; settings: oral
Method: Healthy male C57BL/6 mice (8-12 weeks old) weighing between 17 to 35 g were procured from Global, India. Temperature and humidity were maintained at 22±f3° C. and 30-70%, respectively and illumination was controlled to give a sequence of 12 hr light and 12 hr dark cycle. Temperature and humidity were recorded by auto-controlled data logger system. All the animals were provided laboratory rodent diet. Reverse osmosis water treated with ultraviolet light was provided ad libitum.
Protocol A: Twenty-four male mice were divided into two groups as; Group 1: 30 mg/kg/IP; Plasma and brain; Number of animals=12: Animal #1-12. Group 2: 30 mg/kg/PO; Plasma and brain; Number of animals=12; Animal #13-24. Animals in Group 1 were administered intraperitoneally with solution formulation of PSY-05-00074-001 in 5% NMP, 5% Solutol HS-15 and 90% normal saline at 30 mg/kg dose. Animals in Group 2 were administered orally with solution formulation of PSY-05-00074-001 in 5% NMP, 5% Solutol HS-15 and 90% normal saline at 30 mg/kg dose. Blood samples (approximately 60 μL) were collected under light isoflurane anesthesia from retro orbital plexus at 0.25, 0.5, 1, 2, 4 and 8 hr (IP and PO). Plasma samples were separated by centrifugation of whole blood and stored below −70° C. until bioanalysis. Immediately after collection of blood from intraperitoneal and oral group animals, animals were euthanized with excess CO2 and brain samples were collected from set of two mice at each time point. Brain samples were divided into two parts. Half brain samples were homogenized using ice-cold phosphate buffer saline (pH—7.4) and homogenates were stored below −70±10° C. until analysis. Total homogenate volume was three times the brain weight. Other part of brain was stored below −70±10° C. for further analysis. All samples were processed for analysis by protein precipitation using acetonitrile and analyzed with fit-for-purpose LC/MS/MS method (LLOQ—2.02 ng/mL for plasma and 6.06 ng/g for brain). Pharmacokinetic parameters were calculated using the non-compartmental analysis tool of Phoenix WinNonlin®.
Protocol B: Thirty six mice were included into the study and divided in to three groups as Group 1 (n=12), Group 2 (n=12) and Group 3 (n=12) with n=2 mice per time-point design. Animals in Group 1 were administered intravenously with solution formulation of PSY-05-00414-001 at 5 mg/kg dose. Animals in Group 2 were administered orally with solution formulation of PSY-05-00414-001 at a dose of 5 mg/kg. Animals in Group 3 were administered intraperitoneally with solution formulation of PSY-05-00414-001 at 5 mg/kg dose. The formulation vehicle for all the three groups was 5% NMP, 5% Solutol HS-15 and 90% normal saline. Blood samples (approximately 60 μL) were collected under light isoflurane anesthesia from two mice at 0.25, 0.5, 1, 2, 4 and 8 h. Plasma was harvested by centrifugation of blood and stored at −70±10° C. until analysis. After blood collection, brain was perfused and isolated at 0.25, 0.5, 1, 2, 4 and 8 h. Brain samples were dipped thrice in ice-cold phosphate buffer saline, blotted dry and cut in to two equal portion. Half-brain samples from each time-point were weighed and homogenized using ice-cold phosphate buffer saline with twice volume of brain weight making the total homogenate three volumes and stored below −70±10° C. until analysis. Remaining half-portions of brain samples was snap freeze and kept in −70±10° C. until further confirmation from client. Plasma and brain samples were quantified by fit-for-purpose LC-MS/MS method (LLOQ: 1.01 ng/mL for plasma and 2.02 ng/mL for brain).
Protocol C: Fifty four male mice were included in study and divided in to three groups as Group 1 (n=18), Group 2 (n=18) and Group 3 (n=18) with 3 mice/time point design. Animals from Group 1, Group 2 and Group 3 were administered by intravenous, oral and intraperitoneal route with solution formulation of PSY-05-00451-001 at 5 mg/kg dose, respectively. […]

[2] = biological target: Monoacylglycerol Lipase (MAGL) (Homo sapiens (Human), UniProt Q99685); experiment: MAGL inhibition potency (IC50) assay with 4NPA substrate; format: biochemical
Sequence of Monoacylglycerol Lipase (MAGL) (Q99685 2-303): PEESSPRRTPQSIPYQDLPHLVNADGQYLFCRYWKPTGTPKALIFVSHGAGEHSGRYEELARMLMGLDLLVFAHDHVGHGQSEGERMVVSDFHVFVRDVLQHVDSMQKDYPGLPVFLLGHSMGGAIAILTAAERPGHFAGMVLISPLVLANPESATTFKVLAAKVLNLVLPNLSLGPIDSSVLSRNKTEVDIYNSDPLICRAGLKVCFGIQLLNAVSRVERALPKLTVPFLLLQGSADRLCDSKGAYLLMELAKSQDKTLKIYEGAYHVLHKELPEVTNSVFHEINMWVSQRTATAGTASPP

[3] = biological target: MAGL enzyme (Homo sapiens (Human), UniProt Q99685); experiment: MAGL reversible inhibition assay (washout); format: biochemical; design: B: % MAGL activity returning after washout: concentration or dose not given beside the values; settings: for A: degree to which MAGL enzymatic activity returned following washout of test compounds: pre-washout compound concentration 1 μM; for B: % MAGL activity returning after washout: relative to control (no inhibitor before washout), immediately following a 30 minute washout
Sequence of MAGL enzyme (Q99685 whole entry): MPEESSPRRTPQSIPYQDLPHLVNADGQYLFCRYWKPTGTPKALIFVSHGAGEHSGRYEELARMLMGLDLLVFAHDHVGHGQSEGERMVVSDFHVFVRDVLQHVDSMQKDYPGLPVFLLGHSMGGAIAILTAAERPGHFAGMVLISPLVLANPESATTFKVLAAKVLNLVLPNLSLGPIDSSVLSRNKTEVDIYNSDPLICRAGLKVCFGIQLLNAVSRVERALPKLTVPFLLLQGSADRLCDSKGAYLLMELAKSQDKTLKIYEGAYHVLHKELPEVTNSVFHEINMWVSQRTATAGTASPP
Method: The reversible mechanism of MAGL inhibition of a test compound of Formula (I) can be determined. Flag-tagged MAGL enzyme will be immobilized on anti-Flag beads. Immobilized enzyme will be incubated +/− inhibitor at a dose that produces complete inhibition. Colorimetric substrate (4-NPA) will be added and the reaction monitored on a plate reader for 30 minutes to verify complete inhibition. Immobilized enzyme will then be washed thoroughly to remove the inhibitor, and fresh substrate will be added. The reaction will be monitored for an additional 30 minutes; returning enzymatic activity will indicate reversibility of inhibition.
MAGL enzyme was incubated for 30 minutes in the presence of 40× the IC50 concentration of inhibitor. Enzyme+inhibitor mix was then diluted 40-fold so that the final concentration of the inhibitor equaled the IC50 concentration. Substrate was added and the reaction was monitored for 30 minutes.

[4] = biological target: human recombinant FAAH (Homo sapiens (Human), UniProt O00519); experiment: FAAH inhibition potency counter screen (IC50); format: biochemical
Sequence of human recombinant FAAH (O00519 whole entry): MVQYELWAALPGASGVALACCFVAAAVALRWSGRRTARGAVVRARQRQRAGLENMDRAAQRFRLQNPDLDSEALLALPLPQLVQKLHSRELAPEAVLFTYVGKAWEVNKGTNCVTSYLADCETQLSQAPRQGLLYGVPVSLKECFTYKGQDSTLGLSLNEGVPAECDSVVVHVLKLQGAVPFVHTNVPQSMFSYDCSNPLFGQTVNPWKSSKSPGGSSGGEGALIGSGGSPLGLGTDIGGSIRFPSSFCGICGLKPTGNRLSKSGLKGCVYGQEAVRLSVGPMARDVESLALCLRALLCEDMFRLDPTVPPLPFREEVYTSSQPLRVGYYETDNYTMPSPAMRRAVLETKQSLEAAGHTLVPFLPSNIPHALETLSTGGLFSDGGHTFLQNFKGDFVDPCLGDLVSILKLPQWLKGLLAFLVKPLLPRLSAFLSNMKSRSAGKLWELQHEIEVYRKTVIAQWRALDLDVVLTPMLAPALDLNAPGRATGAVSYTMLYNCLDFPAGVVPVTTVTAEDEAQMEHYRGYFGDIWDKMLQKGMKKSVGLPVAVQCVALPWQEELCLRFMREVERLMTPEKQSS
Method: Comparative compound potency at FAAH can be obtained with the following assay.
MAGL inhibitor compounds were also counter-screened for FAAH inhibition potency using the following assay. Assessment of FAAH inhibition was performed using Fatty Acid Amide Hydrolase Inhibitor Screening Assay Kit (Cayman Item No. 10005196) following manufacture's instruction with some modifications. The kit utilizes human recombinant FAAH and the fluorescent substrate, AMC Arachidonoyl amide (AAMCA). 5 μL of assay buffer (125 mM Tris, pH 9.0, 1 mM EDTA, i.e. ethylenediaminetetraacetic acid) was added to a 384-well black plate (Corning, 3573). Test compounds and control inhibitor JZL-195 (Cayman Chemical, 13668) were tested in 10-concentration IC50 mode with 3-fold serial dilution at a starting concentration of 100 μM and 10 μM, respectively. 300 nL or 30 nL of test compounds were delivered into a 384-well black plate (Corning, 3573) using a Labcyte Echo, followed by addition of 15 μL of FAAH enzyme (Cayman, 700302) in assay buffer. After a 5-minute pre-incubation at room temperature, 10 μL of AAMCA was added in assay buffer to start the reaction. Final concentration of FAAH enzyme is not specified and AAMCA substrate was used at the 20 uM. After these dilutions, the final concentration of the test compounds ranged from 100 μM to 5.08 nM or 10 μM down to 0.508 nM. The reaction was allowed to progress for 60 minutes, while the plate was read on an Envision plate reader at an Ex/Em of 350/460 nm with readings every minute. The data was analyzed in Microsoft Excel, using the slope between 30 and 59 minutes. The average of the no-enzyme wells (background) was subtracted from the data. The background-subtracted slope data was converted to % activity using the average of wells with enzyme and DMSO vehicle. IC50 values were calculated using GraphPad software (Sigmoidal dose response, variable slope equation).
Compounds listed in Table D2 were tested in the FAAH Counterscreen of Example 23

[5] = Method 12: Reaction Biology MAGL enzyme, 15 nM, read-out: MAGL Potency (Detection Method)
[6] = Method A: starting concentration of 100 μM
[7] = Method 2: Cayman Chemical MAGL enzyme, 10 nM, read-out: MAGL Potency (Detection Method)
[8] = Method B: starting concentration of 10 μM

Compound	A: degree to which MAGL enzymatic activity returned following washout of test compounds [3]	B: % MAGL activity returning after washout [3]	IC50 [2, 5]	IC50 [4, 6]	other results
O=C(c1ccc(F)cc1OC1CC1)N1CC2(CC(n3nc(-c4ccccc4C(F)(F)F)cc3C(F)(F)F)C2)C1 (single isomer, unassigned) [Compound 451, (2-cyclopropoxy-4-fluorophenyl)(6-{5-(trifluoromethyl)-3-[o-(trifluoromethyl)phenyl]-1-pyrazolyl}-2-aza-2-spiro[3.3]heptyl)methanone]					AUClast ([1]; 5 mg/kg): 1204.22 ng·h/mL; Cmax ([1]; 5 mg/kg): 271.39 ng/g
Cc1cnn(C2CC3(C2)CN(C(=O)c2cc(O)ccc2F)C3)c1-c1cc(F)ccc1F (single isomer, unassigned) [Compound 476, (6-(5-(2,5-Difluorophenyl)-4-methyl-1H-pyrazol-1-yl)-2-azaspiro [3.3]heptan-2-yl) (2-fluoro-5-hydroxyphenyl) methanone]					AUClast ([1]; 5 mg/kg): 223.64 ng·h/mL; Cmax ([1]; 5 mg/kg): 72 ng/g; IC50 ([2]; Method 13: Reaction Biology MAGL enzyme, 12 nM, read-out: MAGL Potency (Detection Method)): 50 to 150 nM
Cc1cc(C2CC3(C2)CN(C(=O)c2cc(O)ccc2F)C3)n(-c2ccccc2C)n1 [Compound 74, (2-fluoro-5-hydroxyphenyl)(6-(3-methyl-1-(o-tolyl)-1H-pyrazol-5-yl)-2-azaspiro[3.3]heptan-2-yl)methanone]					AUC(0-t) ([1]; male, C57BL/6, mouse, 30 mg/kg, Protocol A): 117 ng·h/mL; Cmax ([1]; male, C57BL/6, mouse, 30 mg/kg, Protocol A, read-out: Cmax): 102 ng/g
Cc1cc(C2CC3(C2)CN(C(=O)c2ccccc2F)C3)n(-c2ccccc2C)n1 [Compound 122, (2-fluorophenyl)(6-(3-methyl-1-(o-tolyl)-1H-pyrazol-5-yl)-2-azaspiro[3.3]heptan-2-yl)methanone]				> 10000 nM	IC50 [2, 7]: 1000 to 5100 nM
COc1ccc(F)c(C(=O)N2CC3(CC(c4cc(C)nn4-c4ccccc4C)C3)C2)c1 [Compound 123]				> 10000 nM	IC50 ([2]; Method 2: Cayman Chemical MAGL enzyme, 10 nM, read-out: Potency (MAGL inhibition)): > 10000 nM
Cc1cc(C2CC3(C2)CN(C(=O)c2cccc(O)c2)C3)n(-c2ccccc2C)n1 [Compound 125, (3-hydroxyphenyl)(6-(3-methyl-1-(o-tolyl)-1H-pyrazol-5-yl)-2-azaspiro[3.3]heptan-2-yl)methanone]				> 10000 nM	IC50 ([2]; Methods 1, 2, read-out: MAGL Potency (Detection Method)): 50 to 150 nM
Cc1cc(C2CC3(C2)CN(C(=O)c2c(F)ccc(O)c2F)C3)n(-c2ccccc2C)n1 [Compound 127, (2,6-difluoro-3-hydroxyphenyl)(6-(3-methyl-1-(o-tolyl)-1H-pyrazol-5-yl)-2-azaspiro[3.3]heptan-2-yl)methanone]				> 10000 nM	IC50 [2, 7]: 1000 to 5100 nM
O=C(Oc1ccc([N+](=O)[O-])cc1)N1CCC(C(O)(c2ccc3c(c2)OCO3)c2ccc3c(c2)OCO3)CC1 [JZL-184, reference compound]	complete lack of return of MAGL enzymatic activity after washout	<1%			

Now from value to compound, other results behind:

A: degree to which MAGL enzymatic activity returned following washout of test compounds [3]	B: % MAGL activity returning after washout [3]	IC50 [2, 5]	IC50 [4, 6]	Compound	other results
155	>50%	50 to 150 nM		Cc1cnn(C2CC3(C2)CN(C(=O)c2cc(O)ccc2F)C3)c1-c1cc(F)ccc1Cl (single isomer, unassigned) [Compound 519, (6-(5-(2-chloro-5-fluorophenyl)-4-methyl-1H-pyrazol-1-yl)-2-azaspiro [3.3]heptan-2-yl) (2-fluoro-5-hydroxyphenyl) methanone]	
			> 10000 nM	Cc1ccccc1-n1nc(C2CC3(C2)CN(C(=O)c2cc(O)ccc2F)C3)cc1C [Compound 117]	
41	<50%	< 50 nM		O=C(c1cc(O)ccc1F)N1CC2(CC(n3cc(C(F)(F)F)c(-c4ccccc4F)n3)C2)C1 [Compound 473, (2-fluoro-5-hydroxyphenyl){6-[3-(o-fluorophenyl)-4-(trifluoromethyl)-1-pyrazolyl]-2-aza-2-spiro[3.3]heptyl}methanone]	IC50 [4, 8]: > 10000 nM
47	<50%	< 50 nM		O=C(c1cc(O)ccc1F)N1CC2(CC(n3cc(C4CC4)c(-c4ccccc4F)n3)C2)C1 [Compound 493, {6-[4-cyclopropyl-3-(o-fluorophenyl)-1-pyrazolyl]-2-aza-2-spiro[3.3]heptyl}(2-fluoro-5-hydroxyphenyl)methanone]	IC50 [4, 8]: > 10000 nM
100	>50%	< 50 nM		Cc1cn(C2CC3(C2)CN(C(=O)c2cc(O)ccc2F)C3)nc1-c1cc(F)ccc1Cl [Compound 520, {6-[3-(2-chloro-5-fluorophenyl)-4-methyl-1-pyrazolyl]-2-aza-2-spiro[3.3]heptyl}(2-fluoro-5-hydroxyphenyl)methanone]	
		< 50 nM		O=C(c1cc(O)ccc1F)N1CC2(CC(n3ccc(-c4ccccc4C(F)(F)F)n3)C2)C1 [Compound 525, (2-fluoro-5-hydroxyphenyl)(6-{3-[o-(trifluoromethyl)phenyl]-1-pyrazolyl}-2-aza-2-spiro[3.3]heptyl)methanone]	
